Data from a melting point compilation (Tetko et al.; mined from patent text by program, amines drawn as free bases though some values may be those of a salt).

| Structure (SMILES) | melting point [°C] |
| --- | --- |
| Cc1cccc2c1C(=O)CC2=O | 125 to 128 |
| CON=C(C(=O)NN)c1ccccc1COc1cc(C)ccc1C | 124 to 126 |
| O=Cc1csc(N2CCOCC2)n1 | 107 to 108 |
| O=C(c1ccccc1)c1cccc2c1NCC2 | 124 to 125 |
| COc1cc(N)c2nccc(C)c2c1Oc1ccc(F)cc1 | 143 to 144 |
| O=C(NCCn1ccnc1)c1sc2ccccc2c1Cl | 132 to 134 |
| CC(=O)C(C)(C#N)c1ccc2c(c1)Cc1cccnc1O2 (stereo not drawn) | 164 |
| O=C1CCC2CCCCC2N1 (stereo not drawn) | 123 to 126 |
| CC(C)CCCC(C)C1CCC2C3CCC4CC(NC(=O)C(COCc5ccccc5)NC(=O)OC(C)(C)C)CCC4(C)C3CCC12C (stereo not drawn) | 55 to 67 |
| CCCn1c(=O)[nH]c2ccc(C(=O)c3nc(NS(C)(=O)=O)c4ccccn34)cc2c1=O | 334 |
| CCN(Cc1cc(Br)ccc1OCc1ccccc1)c1ncc(C(=O)NCc2nnn[nH]2)s1 | 232 to 236 |
| CCOC(=O)c1cncc(C(=O)O)c1 | 180 to 182 |
| CC(O)c1cc(F)ccc1Oc1nc2ccc(-n3cc(-c4ccccc4)nn3)cc2cc1Cc1ccccc1 (stereo not drawn) | 103 |
| CC(=O)NCc1nnc(S)s1 | 200 to 203 |
| CC(=O)c1cccn1N1C(=O)c2ccccc2C1=O | 204 to 205 |
| Cc1c(C)c2c(c(C)c1NC(=O)CCCO)C(c1ccc(C(C)C)cc1)CO2 (stereo not drawn) | 156 to 157 |
| C#CCOCCn1c(CN2CCN(C)CC2)nc2cccnc21 | 117 |
| CON1C(=O)CC2(CCN(C(=O)OCc3ccccc3)CC2)C1=O | 98 |
| CCOC(=O)C1C=Nc2c(cc(F)cc2[N+](=O)[O-])C1=O (stereo not drawn) | 278 to 280 |
| CC(=O)OCC1OC(n2cc(I)c(=O)[nH]c2=O)C(OC(C)=O)C1OC(C)=O (stereo not drawn) | 175 to 179 |
| CNC(=O)c1cccc(C(C(N)=O)c2c[nH]c3ccccc23)c1 (stereo not drawn) | 168 to 169 |
| CC(=O)Oc1ccc2c(c1Cl)Sc1ccccc1N2 | 173 |
| CC1(C)CCC2CCCCC2C1NC=NC#N (stereo not drawn) | 228 |
| COc1ccc(OC)c(CC(NC(=O)CC(C2CCCCC2)C2CCCCC2)C(=O)OC(C)(C)C)c1 (stereo not drawn) | 108 to 111 |
| CCCn1c(=O)c2[nH]c(-c3cc(C)n(CC(=O)Nc4ccc(N(C)C)cc4)n3)nc2n(CCC)c1=O | > 300 |

| Structure (SMILES) | melting point [°C] |
| --- | --- |
| CCC(CC)Nc1nc(Cc2cc(OC)c(OC)c(OC)c2)nc2sc(C#N)c(C)c12 | 127 to 129 |
| C[C@H](NC(=O)CCC1CCC(=O)N1)C(=O)O (stereo partly drawn) | 174 to 179 |
| COc1cc([N+](=O)[O-])c2ncccc2c1OCC(F)(F)F | 109 to 115 |
| CC(=O)N[C@H]1CC[C@H](CCN2CCN(c3nccc4ccoc34)CC2)CC1 | 157 |
| O=C1OC2(CC(c3ccccc3)=NO2)c2ccccc21 (stereo not drawn) | 103 to 106 |
| COc1ccc(-c2nc(SC)sc2-c2ccc(OC)cc2)cc1 | 102 to 104 |
| CCOC(=O)c1c(C)nc(Cl)c([N+](=O)[O-])c1NCCCN(C)C | 20 |
| COc1ccc(Cl)c2c1NC(=O)C2=[N+]=[N-] | 206 to 207 |
| CCCOc1ccccc1-c1nc2nc(N(C)C)nnc2c(=O)[nH]1 | 258 to 259 |
| CC(SC1COC(c2ccc(C(=O)Nc3ccc(Br)cc3)cc2)OC1)C(O)(Cn1cncn1)c1ccc(F)cc1F (stereo not drawn) | 221 |
| COc1ccc(C(=NO)c2sccc2Br)cc1 | 110 to 115 |
| COc1ccccc1-n1c(=O)[nH]c2c(C(N)=O)nc(-c3cccc(N)c3)nc21 | 284 to 285 |
| CCOC(=O)N(C)c1c(OC)cc(Cc2cnc(N)nc2N)cc1OC | 187 to 188 |
| Cc1ccc(S(=O)(=O)Oc2ccc(S(=O)(=O)c3ccoc3C(C)C)cc2)cc1 | 94 |
| COc1cccc2c1C13CCN(C(=O)C4CC4)C(C2)C1(O)CCC(=O)C3 (stereo not drawn) | 223 to 225 |
| CC(C)(C)OC(=O)N1CCn2c(c(C(N)=O)c(Cl)c2-c2ccccc2)C1 | 183 to 185 |
| CCCN1C(=O)C2(CC)CC(c3ccc(N)cc3)(C2)C1=O | 124 to 125 |
| COc1cc(C=CC(=O)c2ccc(C3CCCCC3)cc2)cc(OC)c1 | 75.5 to 76.2 |
| Nc1cc(-c2ccco2)ccc1Nc1cccc(-n2ccnc2)c1 | 191 to 194 |
| NCC#Cc1ccc(Cl)cc1C(=O)c1ccccc1Cl | 81 to 89 |
| Oc1ncnc2nc(C(F)(F)F)ccc12 | 268 to 269 |
| N#Cc1nc2cc(Cl)c3cccnc3c2o1 | 214 to 215 |
| COc1cccc(C=C2c3ccccc3CCc3ccccc32)c1F | 149 |
| CC(=O)OCCCn1c(NC(=O)c2cccs2)nc2cc(C(=O)N(C)C3CCCCC3)ccc21 | 74 to 76 |
| COc1ccc(CN2CCN(CCCN3CCN(Cc4ccc(OC)cc4)CC3)CC2)cc1 | 86 to 87 |

| Structure (SMILES) | melting point [°C] |
| --- | --- |
| CN(C)c1ccc(C=CC(=O)N2CCc3c([nH]c4ccccc34)C2c2ccc3c(c2)CCO3)cn1 (stereo not drawn) | 171 |
| O=C(O)c1cn(-c2ccc(F)cc2F)c2c(F)c(N3Cc4cccc(F)c4C3)c(F)cc2c1=O | > 300 |
| O=[N+]([O-])c1c(F)cc(Cl)c2nc(Cl)sc12 | 110 to 112 |
| CNC(=O)c1cc(C)ccc1Nc1nc(Cl)ncc1Cl | 192 to 210 |
| COC(=O)C(=O)CC(=O)c1ccc(C2CCCCC2)cc1 | 96 to 98 |
| CC#CC(=O)Nc1cccc(-c2ccnc3c(C(=O)c4cccs4)cnn23)c1 | 202 to 203 |
| CS(=O)(=O)c1ccc(-n2cccc2-c2ccc(F)cc2)cc1 | 195 to 196 |
| CC(=O)OC1CSC(Oc2ccc(-c3cnccc3F)nc2-c2cnccc2F)C(OC(C)=O)C1OC(C)=O (stereo not drawn) | 169 |
| CCCc1csc(/C=C/c2cccc(NCCCC(=O)O)c2)n1 | 115 to 116 |
| CCCCCCCCCCC=CCc1c[nH]c(C=O)c1 | 29 to 32 |
| O=CNc1nc(NC2CC2)nc(N2CCOCC2)n1 | 288 |
| COc1cccc2c(=O)cc(-c3ccc(O)cc3)oc12 | 281 to 283 |
| Cc1ccc(CCCCc2ccc(C(=O)C[C@@H](C)CC(=O)O)s2)cc1 | 94 |
| COc1nc2ncnc(NCC=C(C)C)c2[nH]1 | 205 to 210 |
| COc1ccc(C(C)=O)cc1C(F)(F)F | 56 to 57 |
| COc1cccc2c1CCC1=C2CC(=O)N1 | 220 to 222 |
| CC(C)(Cc1ccccc1)C(NC(=O)c1cccnc1)Nc1c(Nc2cccnc2)c(=O)c1=O (stereo not drawn) | 220 to 222 |
| Cc1c(NC(=O)c2ccc(OCCCCF)cc2F)ccc2cc(CN3CCCC3)cnc12 | 140 |
| C[C@@H](NC(=O)c1sc(-c2ccc(Cl)cc2)cc1N)[C@](O)(Cn1cncn1)c1ccc(F)cc1F | 107 to 111 |
| Nc1nc(=O)n(C2OC(CO)CC2O)cc1F (stereo not drawn) | 137 to 138 |
| CN1CC[C@H]2Cc3[nH][nH]c(=O)c3C[C@@H]2C1 (relative stereo) | 245 to 247 |
| CCCCCCOc1cc(-c2ccc3cc4c(cc3c2)C(C)(C)CCC4(C)C)ccc1C(=O)OC | 102 to 104 |
| CC(C)OC(=O)c1ccc(NC(=O)N2CC(CCCC#N)C(c3ccc(Cl)cc3)=N2)cc1 (stereo not drawn) | 109 to 113 |
